Legend:
[1] = Log D of small molecules (1-octanol / phosphate buffer pH 2.5 and pH 7.4, LC-MS/MS); type: physicochemical
Method: (1) Preparation of 100 mM phosphate buffer (PB) solution at pH 2.5 and pH 7.4 respectively: • a. Preparation of a solution of 100 mM H3PO4 in water: 14.7 M H3PO4 was diluted with water to a concentration of 100 mM H3PO4, and the pH was measured to be approximately 1.8. • b. Preparation of 100 mM NaH2PO4: 5.999 g of NaH2PO4 was dissolved in 500 mL of water and the pH was measured to be approximately 4.5. • c. Preparation of 100 mM Na2HPO4: 7.098 g of Na2HPO4 was dissolved in water to a volume of 500 mL and the pH was measured to be approximately 9.4. • d. Preparation of 100 mM PB (pH 2.5): 15 mL of 100 mM H3PO4 was added to a 50 mL tube, and then pH was adjusted to 2.5±0.05 with 100 mM NaH2PO4. • d. Preparation of 100 mM PB (pH 7.4): 15 mL of 100 mM Na2HPO4 was added to a 50 mL tube, and then pH was adjusted to 7.4±0.05 with 100 mM NaH2PO4.
(2) Saturation of PBs (pH 2.5 and pH 7.4) with 1-octanol: 10 mL of 1-octanol was added to 100 mL of 100 mM PBs (pH 2.5 and pH 7.4), and the mixture was shaken vigorously, and then allowed to stand overnight at room temperature for later use.
(3) Saturation of 1-octanol with PBs (pH 2.5 and pH 7.4): 10 mL of 100 mM PBs (pH 2.5 and pH 7.4) was added to 100 mL of 1-octanol, and the mixture was shaken vigorously, and then allowed to stand overnight at room temperature for later use.
2.1) 2 μL of 10 mM DMSO stock solution of the test compound were dispensed into test tubes, in duplicate.
2.2) 149 μL of PB saturated with 1-octanol (pH 2.5 and 7.4) were added to the tubes.
2.3) 149 μL of PB (pH 2.5 and 7.4) saturated with 1-octanol were added to the corresponding tubes.
2.4) Each tube was vigorously mixed for 2 minutes, then shaken at 800 rpm for 1 hour at room temperature.
2.5) The tubes were centrifuged at 4000 rpm for 5 minutes at room temperature.
2.6) Appropriate volumes of the buffer phase and 1-octanol phase samples were aliquoted.
2.7) These samples were diluted and analyzed using LC-MS/MS without running a calibration curve.
2.8) Data analysis: The log D value of each compound was calculated using the following formula: f

[2] = system: N87 gastric cancer cells; assay: Inhibitory activity of compounds on N87 gastric cancer cells (CellTiter-Glo, 144 h); type: cell-based; settings: for IC50 on N87 cells, ratio to DXD: IC50 of PY-X (DXD) set to 1, values are ratios of measured IC50 to DXD, 144 h
Method: (§1) On the day of the experiment, the cells were digested with 0.25% trypsin (Gibco, 25200-072), filtered through a 40 μm sieve, diluted with the corresponding medium to a cell density of 1×10^4 cells/mL, and inoculated into a 96-well white cell culture plate (Beyotime, FCP968), with 100 μL of cells added per well. The culture plate was placed in a 37° C. incubator (Thermo 311) containing 5% C02 and incubated for 24 hours. On the second day, the samples to be tested were prepared as a stock solution at a final concentration of 1M in DMSO (Sigma, D1650), then diluted with the corresponding medium to a final concentration of 200 nM, and subjected to four-fold serial dilutions, resulting in a total of 9 concentrations. 100 μL of the diluted sample was added to each well of the 96-well plate. The plate was placed in a 37° C. incubator containing 5% CO2 and incubated for 144 hours. The cell culture plate was then removed, and 100 μL of the cell viability assay reagent (CellTiter-Glo® Luminescent Cell Viability Assay, Promega, G7571) was added to each well. The reaction was carried out in the dark at room temperature for 5 minutes. Luminescence values were read using a microplate reader (TECAN SPARK), and data were processed using Graphpad Prism 7 software.
(§2) PY—Y is referenced in the document (WO2022170971A1); and PY-A is referenced in the document (WO2021148501A1).

[3] = system: MDA-MB-468 breast cancer cells; assay: Inhibitory activity of compounds on MDA-MB-468 breast cancer cells (CellTiter-Glo); type: cell-based; settings: for IC50 on 468 cells, ratio to DXD: IC50 of PY-X (DXD) set to 1, values are ratios of measured IC50 to DXD
Method: as §1, §2

[4] = system: SW1573 (NSCLC) cells; assay: Inhibition of SW1573 cells by compounds; type: cell-based; settings: PY-X (DXD) set to 1
Method: as §1

[5] = system: H82 (SCLC) cells; assay: Inhibition of H82 cells by compounds; type: cell-based; settings: PY-X (DXD) set to 1
Method: as §1

[6] = system: PANC-1 (Pancreatic) cells; assay: Inhibition of PANC-1 cells by compounds; type: cell-based; settings: PY-X (DXD) set to 1
Method: as §1

[7] = system: A549 (NSCLC) cells; assay: Inhibition of A549 cells by compounds; type: cell-based; settings: PY-X (DXD) set to 1
Method: as §1

[8] = system: H1650 (NSCLC) cells; assay: Inhibition of H1650 cells by compounds; type: cell-based; settings: PY-X (DXD) set to 1
Method: as §1

[9] = system: HT-29 (Colon) cells; assay: Inhibition of HT-29 cells by compounds; type: cell-based; settings: PY-X (DXD) set to 1
Method: as §1

[10] = system: SW1990 (Pancreatic) cells; assay: Inhibition of SW1990 cells by compounds; type: cell-based; settings: PY-X (DXD) set to 1
Method: as §1

[11] = system: H1437 (NSCLC) cells; assay: Inhibition of H1437 cells by compounds; type: cell-based; settings: PY-X (DXD) set to 1
Method: as §1

[12] = system: Colo-205 (Colon) cells; assay: Inhibition of Colo-205 cells by compounds; type: cell-based; settings: PY-X (DXD) set to 1
Method: as §1

[13] = samples retested together, ratio of measured IC50 to DXD

## CC[C@@]1(O)C(=O)OCc2c1cc1n(c2=O)Cc2c-1nc1cc(F)c(C)c3c1c2[C@@H](NC(=O)OCCCO)CC3 [PY-4Car3C, 3-hydroxypropyl((1S,9S)-9-ethyl-5-fluoro-9-hydroxy-4-methyl-10,13-dioxo-2,3,9,10,13,15-hexahydro-1H,12H-benzo[d]pyrano[3′,4′:6,7]indolizino[1,2-b]quinolin-1-yl)carbamate]
[1]; pH 2.5
  logD: 2.2
[1]; pH 7.4
  logD: 2.29
[2]; [13]
  IC50 on N87 cells, ratio to DXD (retest): 0.3593
[3]; [13]
  IC50 on 468 cells, ratio to DXD (retest): 0.5740

## CC[C@@]1(O)C(=O)OCc2c1cc1n(c2=O)Cc2c-1nc1cc(F)c(OC)c3c1c2CCC3 [PY-11, (S)-9-ethyl-5-fluoro-9-hydroxy-4-methoxy-1,2,3,9,12,15-hexahydro-10H,13H-benzo[de]pyrano[3′,4:6,7]indolizino[1,2-b]quinolin-10,13-dione]
[2]
  IC50 on N87 cells, ratio to DXD: 0.0606
[3]
  IC50 on 468 cells, ratio to DXD: 0.9642

## CC[C@@]1(O)C(=O)OCc2c1cc1n(c2=O)Cc2c-1nc1cc(F)c(OC)c3c1c2[C@@H](N)CC3 [PY-12A, (1S,9S)-1-amino-9-ethyl-5-fluoro-9-hydroxy-4-methoxy-1,2,3,9,12,15-hexahydro-10H,13H-benzo[de]pyrano[3′,4:6,7]indolizino[1,2-b]quinolin-10,13-dione]
[2]
  IC50 on N87 cells, ratio to DXD: 1.6441
[3]
  IC50 on 468 cells, ratio to DXD: 3.3035

## CC[C@@]1(O)C(=O)OCc2c1cc1n(c2=O)Cc2c-1nc1cc(F)c(OC)c3c1c2[C@H](N)CC3 [PY-12B, (1R,9S)-1-amino-9-ethyl-5-fluoro-9-hydroxy-4-methoxy-1,2,3,9,12,15-hexahydro-10H,13H-benzo[de]pyrano[3′,4:6,7]indolizino[1,2-b]quinolin-10,13-dione]
[2]
  IC50 on N87 cells, ratio to DXD: 5.3044
[3]
  IC50 on 468 cells, ratio to DXD: 8.4257

## CC[C@@]1(O)C(=O)OCc2c1cc1n(c2=O)Cc2c-1nc1cc(F)c(OCCN)c3c1c2CCC3 [PY-17, (S)-4-(2-aminoethoxy)-9-ethyl-5-fluoro-9-hydroxy-1,2,3,9,12,15-hexahydro-10H,13H-benzo[d]pyrano[3′,4′:6,7]indolizino[1,2-b]quinolin-10,13-dione]
[2]
  IC50 on N87 cells, ratio to DXD: 3.7859
[3]
  IC50 on 468 cells, ratio to DXD: 8.0396

## CC[C@@]1(O)C(=O)OCc2c1cc1n(c2=O)Cc2c-1nc1cc(F)c(CCN)c3c1c2CCC3 [PY-20]
[2]
  IC50 on N87 cells, ratio to DXD: 1.0070
[3]
  IC50 on 468 cells, ratio to DXD: 1.2806

## CC[C@@]1(O)C(=O)OCc2c1cc1n(c2=O)Cc2c-1nc1cc(F)c(CCCCN)c3c1c2CCC3 [PY-24]
[2]
  IC50 on N87 cells, ratio to DXD: 1.5288
[3]
  IC50 on 468 cells, ratio to DXD: 2.2057

## CC[C@@]1(O)C(=O)OCc2c1cc1n(c2=O)Cc2c-1nc1cc(F)c(C)c3c1c2[C@@H](CC(=O)NCCO)CC3 [PY-25B, 2-((1R,9S)-9-9-ethyl-5-fluoro-9-hydroxy-4-methyl-10,13-dioxo-2,3,9,10,13,15-hexahydro-1H,12H-benzo[de]pyrano[3′,4′:6,7]indolizino[1,2-b]quinolin-1-yl)-N-(2-hydroxyethyl)acetamide]
[2]
  IC50 on N87 cells, ratio to DXD: 2.9428
[3]
  IC50 on 468 cells, ratio to DXD: 1.3101

## CC[C@@]1(O)C(=O)OCc2c1cc1n(c2=O)Cc2c-1nc1cc(F)c(COC(=O)NCCO)c3c1c2CCC3 [PY-27(10Car), (S)-(9-ethyl-5-fluoro-9-hydroxy-10,13-dioxy-2,3,9,10,13,15-hexahydro-1H,12H-benzo[d]pyrano[3′,4′:6,7]indolizino[1,2-b]quinolin-4-yl)methyl(2-hydroxyethyl)carbamate]
[2]
  IC50 on N87 cells, ratio to DXD: 3.3500
[3]
  IC50 on 468 cells, ratio to DXD: 3.7610

## CC[C@@]1(O)C(=O)OCc2c1cc1n(c2=O)Cc2c-1nc1cc(Cl)c(CN)c3c1c2CCC3 [PY-36, (S)-4-(aminomethyl) 5-chloro-9-ethyl-9-hydroxy-1,2,3,9,12,15-hexahydro-10 h,13 h-benzo[de]pyrano[3′,4′:6,7]indolizino[1,2-b]quinolin-10,13-dione]
[4]
  IC50 in SW1573 cells, ratio to DXD: 0.7619
[5]
  IC50 in H82 cells, ratio to DXD: 1.5585
[6]
  IC50 in PANC-1 cells, ratio to DXD: 0.6317
[7]
  IC50 in A549 cells, ratio to DXD: 0.4500
[8]
  IC50 in H1650 cells, ratio to DXD: 0.8758
[9]
  IC50 in HT-29 cells, ratio to DXD: 0.4909
[10]
  IC50 in SW1990 cells, ratio to DXD: 1.3305
[11]
  IC50 in H1437 cells, ratio to DXD: 1.1187
[12]
  IC50 in Colo-205 cells, ratio to DXD: 0.9857

## CC[C@@]1(O)C(=O)OCc2c1cc1n(c2=O)Cc2c-1nc1cc(Cl)c(CO)c3c1c2CCC3 [PY-37, (S)-5-chloro-9-ethyl-9-hydroxy-4-(hydroxymethyl)-1,2,3,9,12,15-hexahydro-10 h,13 h-benzo[de]pyrano[3′,4′:6,7]indolizino[1,2-b]quinolin-10,13-dione]
[4]
  IC50 in SW1573 cells, ratio to DXD: 0.6712
[5]
  IC50 in H82 cells, ratio to DXD: 1.1563
[6]
  IC50 in PANC-1 cells, ratio to DXD: 0.3514
[7]
  IC50 in A549 cells, ratio to DXD: 0.4179
[8]
  IC50 in H1650 cells, ratio to DXD: 0.7310
[9]
  IC50 in HT-29 cells, ratio to DXD: 0.4700
[10]
  IC50 in SW1990 cells, ratio to DXD: 0.7777
[11]
  IC50 in H1437 cells, ratio to DXD: 0.9440
[12]
  IC50 in Colo-205 cells, ratio to DXD: 0.6449

## CC[C@@]1(O)C(=O)OCc2c1cc1n(c2=O)Cc2c-1nc1cc(F)c(C)c3c1c2[C@@H](NC(=O)CO)CC3 [PY-X (DXD), exatecan DXD, reference compound]
[1]; 1-octanol / phosphate buffer pH 2.5
  Log D2.5 (Oct/buff) Result: 1.68
[1]; 1-octanol / phosphate buffer pH 7.4
  Log D7.4 (Oct/buff) Result: 1.67
[2]
  IC50 on N87 cells, ratio to DXD: 1.0000
[3]
  IC50 on 468 cells, ratio to DXD: 1.0000

## (S)-9-ethyl-5-fluoro-9-hydroxy-1,2,3,9,12,15-hexahydro-10H,13H-benzo[de]pyrano[3′,4′: 6,7]indolizino[1,2-b]quinolin-10,13-dione [PY-10B]
[2]
  IC50 on N87 cells, ratio to DXD: 0.1623
[3]
  IC50 on 468 cells, ratio to DXD: 0.4362
